The values below come from patent US10428080B2, “TBK/IKK inhibitor compounds and uses thereof” (Merck Patent GmbH, priority 2015, dated 2019).

The test system of assay [1] is phosphorylation of the IRF-3 protein in MDA-MB-468 cells. Put plainly: pIRF3 immunocytochemistry cell based assay. To be noted: Homo sapiens. The procedure, abridged:
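MDA-MB-468 cells got compounds (10-point, 3-fold from 10 uM) for 1 h at 37 °C, then 10 ug/ml Poly(I:C) for 2 h. Fixed, permeabilized cells were immunostained for pIRF3 with AlexaFluor488 and counterstained with PI. % phosphorylation was read by laser scanning cytometry, and IC50 curves were fitted.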

Assay [2] has as its target T1, IKKε (Homo sapiens, UniProt Q14164).
T1 sequence (Q14164 1-716): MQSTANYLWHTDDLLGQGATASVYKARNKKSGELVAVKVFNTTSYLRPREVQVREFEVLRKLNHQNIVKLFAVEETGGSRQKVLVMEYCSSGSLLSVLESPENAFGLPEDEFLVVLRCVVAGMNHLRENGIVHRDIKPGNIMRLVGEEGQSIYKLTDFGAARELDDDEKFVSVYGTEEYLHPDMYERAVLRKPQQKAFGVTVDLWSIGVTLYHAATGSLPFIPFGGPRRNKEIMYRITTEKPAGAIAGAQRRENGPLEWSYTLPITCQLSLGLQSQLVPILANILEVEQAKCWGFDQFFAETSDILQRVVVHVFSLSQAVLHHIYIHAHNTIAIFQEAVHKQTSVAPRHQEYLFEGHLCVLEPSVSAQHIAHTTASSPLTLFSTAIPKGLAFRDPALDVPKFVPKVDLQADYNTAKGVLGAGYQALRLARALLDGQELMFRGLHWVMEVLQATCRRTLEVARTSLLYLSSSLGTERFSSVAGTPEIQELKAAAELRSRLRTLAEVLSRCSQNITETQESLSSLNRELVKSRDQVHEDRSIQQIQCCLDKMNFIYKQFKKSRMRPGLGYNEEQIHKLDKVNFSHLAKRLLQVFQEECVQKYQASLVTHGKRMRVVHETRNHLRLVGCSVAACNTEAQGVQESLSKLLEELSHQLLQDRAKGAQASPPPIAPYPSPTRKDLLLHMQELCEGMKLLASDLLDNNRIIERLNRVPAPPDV
Briefly: IKKe Biochemical Assay. To be noted: read-out: IKKε IC50. The procedure, abridged: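 Recombinant IKKε and substrate were incubated with compound (10-point 1:4 series, top 30 uM final, 1% DMSO) for 90 min at 25° C, then stopped. Substrate-to-product conversion was read by LabChip microfluidic mobility shift; 10 uM staurosporine served as full-inhibition wells.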

Assay [3] addresses T2, TBK1 (Homo sapiens, UniProt Q9UHD2).
T2 sequence (Q9UHD2 1-729): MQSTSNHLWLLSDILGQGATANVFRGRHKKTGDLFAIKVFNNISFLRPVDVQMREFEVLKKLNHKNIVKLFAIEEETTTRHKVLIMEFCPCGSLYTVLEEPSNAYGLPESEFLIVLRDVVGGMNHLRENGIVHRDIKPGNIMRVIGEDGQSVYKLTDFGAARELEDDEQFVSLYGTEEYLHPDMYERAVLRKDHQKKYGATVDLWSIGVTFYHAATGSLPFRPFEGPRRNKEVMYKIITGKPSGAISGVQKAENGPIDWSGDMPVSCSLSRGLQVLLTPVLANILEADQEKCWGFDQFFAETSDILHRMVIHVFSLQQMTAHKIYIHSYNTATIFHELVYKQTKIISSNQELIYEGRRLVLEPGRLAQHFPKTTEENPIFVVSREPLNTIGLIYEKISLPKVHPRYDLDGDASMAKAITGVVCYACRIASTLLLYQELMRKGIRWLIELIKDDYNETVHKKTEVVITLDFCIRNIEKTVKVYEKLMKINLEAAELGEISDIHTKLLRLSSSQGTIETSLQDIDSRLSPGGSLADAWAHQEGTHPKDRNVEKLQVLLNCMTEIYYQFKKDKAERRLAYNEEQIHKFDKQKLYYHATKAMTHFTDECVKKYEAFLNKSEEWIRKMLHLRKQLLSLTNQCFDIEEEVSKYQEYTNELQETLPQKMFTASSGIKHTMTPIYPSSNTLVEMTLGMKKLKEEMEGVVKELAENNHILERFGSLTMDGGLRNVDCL
Put plainly: TBK Biochemical Assay. The conditions noted are these: read-out: TBK1 IC50. Summed up:
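TBK1 enzyme and substrate incubated with compounds (10-point 1:4 dilution, top 30 uM final, 1% DMSO) for 90 min at 25° C, then stopped. Substrate/product peaks read by microfluidic mobility-shift (Caliper LabChip); 10 uM staurosporine as full-inhibition control.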

[4] abbreviates: MDA-MB-468 cells, Poly(I:C) stimulation, read-out: pIRF3 IC50.
The mark [5] stands for this setting: MDA-MB-468, read-out: pIRF3 IC50.

Where a name gives a salt, the structure may show the parent alone. Read-outs that look alike come from different tables or passages of the source.

Broadly, the IC50 is the concentration needed to halve the response being measured. As to `CC1(O)CN(C(=O)c2ccc(-c3cc4nccc(-c5ccc(OC6CCOCC6)c(C#N)c5)c4o3)cc2)C1` [Compound 124, 5-{2-[4-(3-Hydroxy-3-methyl-azetidine-1-carbonyl)-phenyl]-furo[3,2-b]pyridin-7-yl}-2-(tetrahydro-pyran-4-yloxy)-benzonitrile], the IC50 in assay [1] (setting [4]) was 1000 to 5000 nM; in assay [2], less than 100 nM; in assay [3], less than 100 nM.

Consider `COc1cc(C(=O)N2CCC(F)(F)C2)ccc1-c1cc2nccc(-c3ccc(OC4CCOCC4)c(C#N)c3)c2o1` [Compound 45, 5-{2-[4-(3,3-Difluoro-pyrrolidine-1-carbonyl)-2-methoxy-phenyl]-furo[3,2-b]pyridin-7-yl}-2-(tetrahydro-pyran-4-yloxy)-benzonitrile], for which the IC50 was 100 to 1000 nM in assay [1] (setting [4]), less than 100 nM in assay [2] and less than 100 nM in assay [3].

Turning to `COc1cc(C(=O)NC[C@@H](O)CO)ccc1-c1cc2nccc(-c3ccc(OC4CCOCC4)c(C#N)c3)c2o1` [Compound 49, 4-{7-[3-Cyano-4-(tetrahydro-pyran-4-yloxy)-phenyl]-furo[3,2-b]pyridin-2-yl}-N—((R)-2,3-dihydroxy-propyl)-3-methoxy-benzamide], the IC50 in assay [1] (setting [4]) was 100 to 1000 nM; in assay [2], less than 100 nM; in assay [3], less than 100 nM.

As to `COc1cc(C(=O)N2CCCCN2C)cnc1-c1cc2nccc(-c3ccc(OC4CCOCC4)c(C#N)c3)c2o1` [Compound 408, 5-(2-[3-methoxy-5-[(2-methyl-1,2-diazinan-1-yl)carbonyl]pyridin-2-yl]furo[3,2-b]pyridin-7-yl)-2-(oxan-4-yloxy)benzonitrile], the IC50 in assay [1] (setting [5]) is 100 to 1000 nM; in assay [2], less than 100 nM; in assay [3], less than 100 nM.

In the case of `COc1nc(C(=O)N(C)C)ccc1-c1cc2nccc(-c3ccc(N4CC[C@H](F)C4)c(C#N)c3)c2o1` [Compound 314, 5-{7-[3-Cyano-4-((S)-3-fluoro-pyrrolidin-1-yl)-phenyl]-furo[3,2-b]pyridin-2-yl}-6-methoxy-pyridine-2-carboxylic acid dimethylamide], the IC50 is 100 to 1000 nM in assay [1] (setting [4]), less than 100 nM in assay [2] and less than 100 nM in assay [3].

`COc1cc(C(=O)NC2CC(CN(C)C)C2)ccc1-c1cc2nccc(-c3ccc(OC4CCOCC4)c(C#N)c3)c2o1` (stereo not drawn) [Compound 344, 4-[7-[3-cyano-4-(oxan-4-yloxy)phenyl]furo[3,2-b]pyridin-2-yl]-N-[3-[(dimethylamino)methyl]cyclobutyl]-3-methoxybenzamide]: the figures for the concentration for half-maximal inhibition (IC50) in assay [1] (setting [4]), in assay [2] and in assay [3] were 100 to 1000 nM, less than 100 nM and less than 100 nM, respectively.

`CC(=O)Nc1ccc(-c2cc3nccc(-c4ccc(OC5CCOCC5)c(C#N)c4)c3o2)cc1` [Compound 154]: the values for the IC50 in assay [1] (setting [4]), in assay [2] and in assay [3] were 1000 to 5000 nM, less than 100 nM and less than 100 nM, respectively.

With `COc1cc(C(=O)N(C)C)ncc1-c1cc2nccc(-c3ccc(NC4CCNC4)c(C#N)c3)c2o1` (stereo not drawn) [Compound 431, 5-(7-[3-cyano-4-[(pyrrolidin-3-yl)amino]phenyl]furo[3,2-b]pyridin-2-yl)-4-methoxy-N,N-dimethylpyridine-2-carboxamide], the IC50 in assay [1] (setting [4]), in assay [2] and in assay [3] was less than 100 nM throughout.

Turning to `COc1cc(C(=O)N(C)C)cnc1-c1cc2nccc(-c3ccc(OC4CCNCC4(F)F)c(C#N)c3)c2o1` (stereo not drawn) [Compound 403, 6-(7-[3-cyano-4-[(3,3-difluoropiperidin-4-yl)oxy]phenyl]furo[3,2-b]pyridin-2-yl)-5-methoxy-N,N-dimethylpyridine-3-carboxamide], the values for the IC50 in assay [1] (setting [4]), in assay [2] and in assay [3] were 100 to 1000 nM, less than 100 nM and less than 100 nM, respectively.

On to `COc1cc(C(=O)NC(C)(C)CN(C)C)ccc1-c1cc2nccc(-c3ccc(NC4C5COCC54)c(C#N)c3)c2o1` (stereo not drawn) [Compound 502, N-(2-dimethylamino-1,1-dimethyl-ethyl)-4-{7-[3-cyano-4-(3-oxa-bicyclo[3.1.0]hex-6-ylamino)-phenyl]-furo[3,2-b]pyridin-2-yl}-3-methoxy-benzamide], for which the half-maximal inhibitory concentration (IC50) in assay [1] (setting [4]) was 100 to 1000 nM; in assay [2], less than 100 nM; in assay [3], less than 100 nM.

Regarding `COc1cc(C(=O)N(C)CCO)ncc1-c1cc2nccc(-c3ccc(N4CC[C@@H](F)C4)c(C#N)c3)c2o1` [Compound 380, 5-{7-[3-Cyano-4-((R)-3-fluoro-pyrrolidin-1-yl)-phenyl]-furo[3,2-b]pyridin-2-yl}-4-methoxy-pyridine-2-carboxylic acid (2-hydroxy-ethyl)-methyl-amide], the IC50 in assay [1] (setting [4]), in assay [2] and in assay [3] was less than 100 nM throughout.

For `COc1c(C(=O)N(C)C)nn(C)c1-c1cc2nccc(-c3ccc(OC4CCOCC4)c(C#N)c3)c2o1` [Compound 401, 5-[7-[3-cyano-4-(oxan-4-yloxy)phenyl]furo[3,2-b]pyridin-2-yl]-4-methoxy-N,N,1-trimethyl-1H-pyrazole-3-carboxamide hydrochloride], the IC50 was 100 to 1000 nM in assay [1] (setting [5]), less than 100 nM in assay [2] and less than 100 nM in assay [3].

`COc1cc(C(=O)N[C@H]2CCCC[C@H]2O)ccc1-c1cc2nccc(-c3ccc(OC4CCOCC4)c(C#N)c3)c2o1` [Compound 476, 4-{7-[3-Cyano-4-(tetrahydro-pyran-4-yloxy)-phenyl]-furo[3,2-b]pyridin-2-yl}-N-((1S,2R)-2-hydroxy-cyclohexyl)-3-methoxy-benzamide]: the half-inhibitory concentration (IC50) in assay [1] (setting [4]) was 100 to 1000 nM; in assay [2], less than 100 nM; in assay [3], less than 100 nM.

With `COc1cc(C(=O)N(C)CCO)cnc1-c1cc2nccc(-c3ccc(NC4CCOCC4)c(C#N)c3)c2o1` [Compound 318, 6-(7-(3-cyano-4-(tetrahydro-2H-pyran-4-ylamino)phenyl)furo[3,2-b]pyridin-2-yl)-N-(2-hydroxyethyl)-5-methoxy-N-methylnicotinamide], the results for the half-maximal inhibitory concentration (IC50) in assay [1] (setting [4]), in assay [2] and in assay [3] were 100 to 1000 nM, less than 100 nM and less than 100 nM, respectively.

For `COc1cc(C(=O)N(C)C)cnc1-c1cc2nccc(-c3ccc(NC4C5COCC54)c(C#N)c3)c2o1` (stereo not drawn) [Compound 436, 6-[7-[3-cyano-4-([3-oxabicyclo[3.1.0]hexan-6-yl]amino)phenyl]furo[3,2-b]pyridin-2-yl]-5-methoxy-N,N-dimethylpyridine-3-carboxamide], the IC50 in assay [1] (setting [4]), in assay [2] and in assay [3] was less than 100 nM throughout.

On to `COc1cc(C(=O)N(C)C)cnc1-c1cc2ncc(OC)c(-c3ccc(OC4CCOCC4)c(C#N)n3)c2o1` [Compound 338, 6-[7-[6-cyano-5-(oxan-4-yloxy)pyridin-2-yl]-6-methoxyfuro[3,2-b]pyridin-2-yl]-5-methoxy-N,N-dimethylpyridine-3-carboxamide hydrochloride], for which the concentration for half-maximal inhibition (IC50) lay in the range of 1000 to 5000 nM in assay [1] (setting [4]), 100 to 1000 nM in assay [2] and 100 to 1000 nM in assay [3].

As for `COc1cc(C(=O)N2CC3CCC2CO3)cnc1-c1cc2nccc(-c3ccc(OC4CCOCC4)c(C#N)c3)c2o1` (stereo not drawn) [Compound 414, hydrochloride], the IC50 in assay [1] (setting [4]), in assay [2] and in assay [3] was less than 100 nM each time.
